From patent US11149011B2, “Compounds and methods for IDO and TDO modulation, and indications therefor” (Plexxikon Inc., priority 2018, dated 2021)

Key:
TDO = target: T1, TDO (Homo sapiens, UniProt P48775); test: TDO enzymatic assay; settings: geometric mean; read-out: TDO GMean: IC50 (μM) (Biochemical Assay)
T1 construct: His tag (N); made in house; host or cells: E. coli
Experimental: (§1) Human IDO or TDO with N-terminal His tag is purified in E. coli. The IDO enzymatic assay is performed using 6 nM IDO and 10 μM L-Trp in the presence of 10 mM ascorbic acid, 5 μM methylene blue, 100 nM catalase and 0.01% Tween 20 in 50 mM sodium phosphate buffer (pH 6.5). 19 μL of above reaction mixture is added to wells of 384 well reaction plate containing 1 μL of various concentrations of test compound or DMSO vehicle and incubated for 20 minutes at room temperature. The TDO enzymatic reaction assay is performed using 1 nM TDO and 350 μM L-Trp in the presence of 10 mM ascorbic acid, 0.4 μM methylene blue, 100 nM catalase and 0.01% Tween 20 in 50 mM sodium phosphate buffer (pH 6.5). 19 μL of above reaction mixture is added to wells of 384 well reaction plate containing 1 μL of various concentrations of test compound or DMSO vehicle and incubated for 70 minutes at room temperature. 16 wells containing all the components of reaction mixture and 5% DMSO serve as high control. 16 well containing all the components except enzyme of reaction mixture and 5% DMSO serves as low control. Both IDO and TDO enzymatic reactions are stopped by addition of 4 μL of 30% TCA and incubated 30 minutes at 50° C. to hydrolyze N-formylkynurenine produced by IDO or TDO to kynurenine. Upon measuring the kynurenine level, the percentage inhibition is calculated at individual concentrations relative to high and low controls. The data is analyzed by using nonlinear regression to generate IC50 values.

[1] = target: T2, IDO1-expressing HEK293 cell clones (Homo sapiens, UniProt P14902); test: Cell based kynurenine assay, IDO1-expressing HEK293 cell clones; settings: HEK293 cells, 24 hours of incubation, geometric mean; read-out: HEK293 IDO1 Kynurenine GMean IC50 (μM) (Cellular Assay)
T2 construct: expressed in transfected cells; host or cells: HEK293
T2 sequence (P14902 whole entry): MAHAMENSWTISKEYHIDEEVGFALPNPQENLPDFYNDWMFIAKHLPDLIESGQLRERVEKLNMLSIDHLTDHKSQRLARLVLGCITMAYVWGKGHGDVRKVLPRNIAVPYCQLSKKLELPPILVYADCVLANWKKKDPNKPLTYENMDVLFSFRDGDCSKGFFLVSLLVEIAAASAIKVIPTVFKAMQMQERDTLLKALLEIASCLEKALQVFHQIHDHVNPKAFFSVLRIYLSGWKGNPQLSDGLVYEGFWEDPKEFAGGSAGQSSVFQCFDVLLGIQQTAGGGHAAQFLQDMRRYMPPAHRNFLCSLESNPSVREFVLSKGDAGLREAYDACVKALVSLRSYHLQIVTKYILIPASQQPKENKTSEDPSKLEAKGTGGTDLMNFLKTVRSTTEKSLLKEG
Experimental: (§2) IDO1-expressing or TDO-expressing HEK293 cell clones are generated upon stable transfection of plasmids expressing human IDO or human TDO under the control of CMV promoter. Cells are selected in DMEM media supplemented with 10% fetal bovine serum and 1 mg/ml G418 at 37° C. in a humidified incubator supplied with 5% CO2. The assays are performed as follows.
(§3) Cells were seeded in a 96 well plate in 50 μL of culture media at a density of 2.5×10^4 per well. Serial dilutions of compounds (in total volume of 50 μL culture media) are added into cells. 4 wells containing 0.2% DMSO treated cells serve as high controls and 4 wells containing media only with 0.2% DMSO serve as low controls. After 24 hours of incubation, the supernatant was transferred to a 384 well reaction plate and the kynurenine level determined. The percentage inhibition at individual concentrations relative to high and low controls is calculated. The data is analyzed by using nonlinear regression to generate IC50 values.

IDO1 = target: T3, IDO1 (Homo sapiens, UniProt P14902); test: IDO enzymatic assay; type: biochemical; settings: geometric mean; read-out: IDO1 GMean: IC50 (μM) (Biochemical Assay)
T3 construct: His tag (N); made in house; host or cells: E. coli
T3 sequence (P14902 whole entry): as above
Experimental: as §1

[2] = target: T4, TDO-expressing HEK293 cell clones (Homo sapiens, UniProt P48775); test: Cell based kynurenine assay, TDO-expressing HEK293 cell clones; settings: HEK293 cells, 24 hours of incubation, geometric mean; read-out: HEK293 TDO Kynurenine GMean IC50 (μM) (Cellular Assay)
T4 construct: expressed in transfected cells; host or cells: HEK293
T4 sequence (P48775 whole entry): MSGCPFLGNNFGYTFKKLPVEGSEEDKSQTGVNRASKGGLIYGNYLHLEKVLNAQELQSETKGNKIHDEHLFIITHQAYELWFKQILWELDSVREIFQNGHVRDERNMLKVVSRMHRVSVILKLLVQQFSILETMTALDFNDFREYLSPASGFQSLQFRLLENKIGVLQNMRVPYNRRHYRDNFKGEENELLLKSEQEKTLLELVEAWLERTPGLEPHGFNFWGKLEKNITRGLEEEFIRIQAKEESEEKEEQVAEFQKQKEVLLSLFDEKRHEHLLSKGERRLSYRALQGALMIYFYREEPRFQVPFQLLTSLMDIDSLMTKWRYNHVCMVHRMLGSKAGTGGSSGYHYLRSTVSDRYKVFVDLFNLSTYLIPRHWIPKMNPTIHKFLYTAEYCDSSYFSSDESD
Experimental: as §2, §3

Measured: IC50

T1 sequence (P48775 whole entry): as above

O=C(NCCC(F)(F)F)N1CCC(C(F)(F)C(=O)c2c(F)c(Cl)cc3cn[nH]c23)CC1 [Compound P-0039, 4-(2-(5-chloro-6-fluoro-1H-indazol-7-yl)-1,1-difluoro-2-oxoethyl)-N-(3,3,3-trifluoropropyl)piperidine-1-carboxamide]
0.0001 to 10 µM: all assays above

O=C(NC1CC(F)(F)C1)N1CCC(C(F)(F)C(=O)c2c(F)c(Cl)cc3cn[nH]c23)CC1 [Compound P-0040, 4-(2-(5-chloro-6-fluoro-1H-indazol-7-yl)-1,1-difluoro-2-oxoethyl)-N-(3,3-difluorocyclobutyl)piperidine-1-carboxamide]
0.0001 to 10 µM: all assays above

O=C(NC1CCC(F)(F)CC1)N1CCC(C(F)(F)C(=O)c2c(F)c(Cl)cc3cn[nH]c23)CC1 [Compound P-0041, 4-(2-(5-chloro-6-fluoro-1H-indazol-7-yl)-1,1-difluoro-2-oxoethyl)-N-(4,4-difluorocyclohexyl)piperidine-1-carboxamide]
0.0001 to 10 µM: all assays above

N#CCCCNC(=O)N1CCC(C(F)(F)C(=O)c2c(F)c(Cl)cc3cn[nH]c23)CC1 [Compound P-0042, 4-(2-(5-chloro-6-fluoro-1H-indazol-7-yl)-1,1-difluoro-2-oxoethyl)-N-(3-cyanopropyl)piperidine-1-carboxamide]
0.0001 to 10 µM: all assays above

O=C(NCCCF)N1CCC(C(F)(F)C(=O)c2c(F)c(Cl)cc3cn[nH]c23)CC1 [Compound P-0043, 4-(2-(5-chloro-6-fluoro-1H-indazol-7-yl)-1,1-difluoro-2-oxoethyl)-N-(3-fluoropropyl)piperidine-1-carboxamide]
> 10 µM: [2]
0.0001 to 10 µM: all other assays above

CC(C)(C1CCN(C(=O)c2cccnc2)CC1)C(O)c1cc(Cl)cc2[nH]ncc12 (stereo not drawn) [Compound P-0044, (4-(1-(6-chloro-1H-indazol-4-yl)-1-hydroxy-2-methylpropan-2-yl)piperidin-1-yl)(pyridin-3-yl)methanone]
0.0001 to 10 µM: all assays above

CCCC(=O)N1CCC(C(C)(C)C(O)c2cc(Cl)cc3[nH]ncc23)CC1 (stereo not drawn) [Compound P-0045, 1-(4-(1-(6-chloro-1H-indazol-4-yl)-1-hydroxy-2-methylpropan-2-yl)piperidin-1-yl)butan-1-one]
0.0001 to 10 µM: all assays above

CC(C)(C1CCN(C(=O)C2CC2)CC1)C(O)c1cc(Cl)cc2[nH]ncc12 (stereo not drawn) [Compound P-0046, (4-(1-(6-chloro-1H-indazol-4-yl)-1-hydroxy-2-methylpropan-2-yl)piperidin-1-yl)(cyclopropyl)methanone]
> 10 µM: [1]
0.0001 to 10 µM: all other assays above

CC(C)(C1CCN(C(=O)CC#N)CC1)C(O)c1cc(Cl)cc2[nH]ncc12 (stereo not drawn) [Compound P-0047, 3-(4-(1-(6-chloro-1H-indazol-4-yl)-1-hydroxy-2-methylpropan-2-yl)piperidin-1-yl)-3-oxopropanenitrile]
0.0001 to 10 µM: all assays above

CC(C)(C1CCN(C(=O)C2CCOCC2)CC1)C(O)c1cc(Cl)cc2[nH]ncc12 (stereo not drawn) [Compound P-0048, (4-(1-(6-chloro-1H-indazol-4-yl)-1-hydroxy-2-methylpropan-2-yl)piperidin-1-yl)(tetrahydro-2H-pyran-4-yl)methanone]
0.0001 to 10 µM: all assays above

COCC(=O)N1CCC(C(C)(C)C(O)c2cc(Cl)cc3[nH]ncc23)CC1 (stereo not drawn) [Compound P-0049, 1-(4-(1-(6-chloro-1H-indazol-4-yl)-1-hydroxy-2-methylpropan-2-yl)piperidin-1-yl)-2-methoxyethan-1-one]
0.0001 to 10 µM: all assays above

CC(C)(C1CCN(C(=O)CC2CCOCC2)CC1)C(O)c1cc(Cl)cc2[nH]ncc12 (stereo not drawn) [Compound P-0050, 1-(4-(1-(6-chloro-1H-indazol-4-yl)-1-hydroxy-2-methylpropan-2-yl)piperidin-1-yl)-2-(tetrahydro-2H-pyran-4-yl)ethan-1-one]
0.0001 to 10 µM: all assays above

CC(C)(C1CCN(C(=O)CC(F)(F)F)CC1)C(O)c1cc(Cl)cc2[nH]ncc12 (stereo not drawn) [Compound P-0051, 1-(4-(1-(6-chloro-1H-indazol-4-yl)-1-hydroxy-2-methylpropan-2-yl)piperidin-1-yl)-3,3,3-trifluoropropan-1-one]
0.0001 to 10 µM: all assays above

CC(C)(C1CCN(C(=O)C2CCC2)CC1)C(O)c1cc(Cl)cc2[nH]ncc12 (stereo not drawn) [Compound P-0052, (4-(1-(6-chloro-1H-indazol-4-yl)-1-hydroxy-2-methylpropan-2-yl)piperidin-1-yl)(cyclobutyl)methanone]
0.0001 to 10 µM: all assays above

CC(C)(C1CCN(C(=O)c2ccc(C(F)(F)F)nc2)CC1)C(O)c1cc(Cl)cc2[nH]ncc12 (stereo not drawn) [Compound P-0053, (4-(1-(6-chloro-1H-indazol-4-yl)-1-hydroxy-2-methylpropan-2-yl)piperidin-1-yl)(6-(trifluoromethyl)pyridin-3-yl)methanone]
0.0001 to 10 µM: all assays above

CCN(CC)CC(=O)N1CCC(C(C)(C)[C@H](O)c2cc(Cl)cc3cn[nH]c23)CC1 [Compound P-0058, (S)-1-(4-(1-(5-chloro-1H-indazol-7-yl)-1-hydroxy-2-methylpropan-2-yl)piperidin-1-yl)-2-(diethylamino)ethan-1-one]
0.0001 to 10 µM: all assays above

CC(C)(C1CCN(C(=O)CN2CCCC2)CC1)[C@H](O)c1cc(Cl)cc2cn[nH]c12 [Compound P-0059, (S)-1-(4-(1-(5-chloro-1H-indazol-7-yl)-1-hydroxy-2-methylpropan-2-yl)piperidin-1-yl)-2-(pyrrolidin-1-yl)ethan-1-one]
0.0001 to 10 µM: all assays above

COCCONC(=O)N1CCC(C(C)(C)[C@H](O)c2cc(Cl)cc3cn[nH]c23)CC1 [Compound P-0062, (S)-4-(1-(5-chloro-1H-indazol-7-yl)-1-hydroxy-2-methylpropan-2-yl)-N-(2-methoxyethoxy)piperidine-1-carboxamide]
0.0001 to 10 µM: all assays above

CN(C)CCONC(=O)N1CCC(C(C)(C)[C@H](O)c2cc(Cl)cc3cn[nH]c23)CC1 [Compound P-0063, (S)-4-(1-(5-chloro-1H-indazol-7-yl)-1-hydroxy-2-methylpropan-2-yl)-N-(2-(dimethylamino)ethoxy)piperidine-1-carboxamide]
0.0001 to 10 µM: all assays above

CC(C)ONC(=O)N1CCC(C(C)(C)[C@H](O)c2cc(Cl)cc3cn[nH]c23)CC1 [Compound P-0064, (S)-4-(1-(5-chloro-1H-indazol-7-yl)-1-hydroxy-2-methylpropan-2-yl)-N-isopropoxypiperidine-1-carboxamide]
0.0001 to 10 µM: all assays above

CC(C)(C1CCN(C(=O)NOCC(F)(F)F)CC1)[C@H](O)c1cc(Cl)cc2cn[nH]c12 [Compound P-0065, (S)-4-(1-(5-chloro-1H-indazol-7-yl)-1-hydroxy-2-methylpropan-2-yl)-N-(2,2,2-trifluoroethoxy)piperidine-1-carboxamide]
0.0001 to 10 µM: all assays above
